Tested on: human whole skin
Assay: Whole skin silver staining study, Franz type diffusion cell (Example 2)
Settings: dressing hydrated with 200 μl saline, 24 hours, 32° C., FIG. 1
Protocol: Skin staining studies were carried out using an adaptation of a Franz type horizontal glass diffusion cell as described in Dugard et al, 1984. Whole human skin and wound tissue samples (1 cm^2 discs) were punched out using an Osborne arch punch and placed epidermal side uppermost on the receptor chamber. The donor chamber was then gently placed on top of the receptor chamber. The whole cell was clamped together and placed into a water bath maintained at 32° C.±1° C. The underlying whole skin was bathed in saline.
Individual silver-containing wound dressings (0.64 1 cm^2) were cut out and placed onto the centre of a piece of human whole skin. 200 μl of saline was placed into the donor chamber to hydrate each dressing to mimic a moderately exuding wound. Appoximately 5-10 mg of Flamazine cream was placed onto the skin and gently smoothed over the exposed skin surface by means of a small spatula. […] Each cell was left for 24 hours and images were taken using a Polaroid digital microscope camera.

## O=[N+]([O-])[O-].[Ag+] [silver nitrate]
  silver staining of skin: significant silver staining
